The nature of the data set: RP, Agilent ZORBAX Eclipse Plus C18, 150 × 2.1 mm, 3.5 µm, 40 °C, 0.3 mL/min, estimated dead time 1.1 min; A: water + 0.1% formic acid; B: acetonitrile + 0.1% formic acid; gradient (min/%B) 0/2 1/2 2/20 16.5/98 22/98. As to conditions: stereoisomer not certain.

Each structure is given as a SMILES string.

With `COc1ccc(C(=O)c2ccc(OC)cc2O)c(O)c1`, the LC retention time was 12.7 min.
With `NC(=O)N1c2ccccc2C=Cc2ccc(O)cc21` the figure was 7.92 min; with `CN(C)c1ccc(C=O)cc1`, 8.87 min.
As for `CC(C)(C)P(=O)(O)O`, the LC retention time is 4.63 min.
Take `O=S(=O)([O-])CCCC[P+](c1ccccc1)(c1ccccc1)c1ccccc1`: the LC retention time is 7.14 min.
As for `CCNC(=O)c1cccc(C)c1`, the LC retention time is 8.34 min.
With `CC1(C)CCCC(C)(C)N1`, the LC retention time is 4.82 min.
On to `OCCN1CCN(CCCN2c3ccccc3C=Cc3ccccc32)CC1`, for which the LC retention time is 7.24 min.
`O=P(Oc1ccccc1)(Oc1ccccc1)Oc1ccccc1`: the LC retention time is 14.1 min.
Regarding `COC(=O)c1ccc(O)cc1`, the LC retention time was 7.59 min.
As to `COc1cc(N)nc(OC)n1`, the LC retention time is 4.66 min.
With `NC(=O)c1ccccc1` the figure was 5.64 min; with `CC(C)CC[P+](c1ccccc1)(c1ccccc1)c1ccccc1`, 9.31 min.
For the compound `COc1cccc(C2(O)CCCCC2C[N+](C)(C)[O-])c1` (stereo not drawn), the LC retention time was 6.33 min.
On to `O=C(Nc1ccccc1)Nc1ccccc1`, for which the LC retention time is 10.8 min.
As to `NP(=O)(c1ccccc1)c1ccccc1`, the LC retention time is 7.41 min.
With `CCP(=O)(CC)CC` the figure was 5.15 min; with `Cc1cc(C)c(C(=O)P(=O)(c2ccccc2)c2ccccc2)c(C)c1`, 14.1 min.
For `Nc1nc(NC2CC2)c2ncn(C3C=CC(CO)C3)c2n1` (stereo not drawn), the LC retention time is 5.09 min.
Consider `COC(=O)CCCC[P+](c1ccccc1)(c1ccccc1)c1ccccc1`, for which the LC retention time was 8.3 min.
For `CCCCCCCCCCCC[N+](C)(C)C`, the LC retention time was 10 min.
For the compound `O=C(O)c1ccccc1O`, the LC retention time is 7.89 min.
For the compound `COC(=O)C[P+](c1ccccc1)(c1ccccc1)c1ccccc1`, the LC retention time was 7.72 min.
With `O=C(CCc1ccc(O)cc1)c1c(O)cc(O)cc1O` the figure was 8.77 min; with `CNCC1CCCCC1(O)c1cccc(OC)c1` (stereo not drawn), 6.25 min; with `C=C(c1ccc(C(=O)O)cc1)c1cc2c(cc1C)C(C)(C)CCC2(C)C`, 17.6 min.
Turning to `CC12CC3CC(C)(C1)CC(N)(C3)C2`, the LC retention time was 6.65 min.
Regarding `Nc1ccn(C2CSC(CO)O2)c(=O)n1` (stereo not drawn), the LC retention time is 3.1 min.
For `CC[P+](c1ccccc1)(c1ccccc1)c1ccccc1`, the LC retention time was 7.39 min.
With `CCCCCCCC[N+](C)(C)CCCCCCCC` the figure was 11.7 min.
For the compound `COc1ccc2c(c1)CCC1C2CCC2(C)C(=O)CCC12` (stereo not drawn), the LC retention time is 10.5 min.
Turning to `c1ccc2sc(SSN3CCOCC3)nc2c1`, the LC retention time was 13.8 min.
For `CCC(C)(C)C(=O)OC1CC(CO)C=C2C=CC(C)C(CCC3CC(O)CC(=O)O3)C21` (stereo not drawn), the LC retention time was 10.8 min.
Turning to `COc1ccc(-c2coc3cc(O)ccc3c2=O)cc1`, the LC retention time is 10.1 min.
With `CCC1(C2OC(C3OC(O)(CO)C(C)CC3C)CC2C)CCC(C2(C)CCC3(CC(O)C(C)C(C(C)C(OC)C(C)C(=O)O)O3)O2)O1` (stereo not drawn) the figure was 20.4 min.
Consider `CC(CN1c2ccccc2Sc2ccccc21)N(C)C` (stereo not drawn), for which the LC retention time is 8 min.
With `NCC1(CC(=O)O)CCCCC1`, the LC retention time is 4.88 min.
With `c1ccc(-c2nc3ccccc3[nH]2)cc1` the figure was 5.9 min; with `Cc1nnc(-c2ccccc2)c(=O)n1N`, 6.78 min.
The figure for `Cc1cc(N)no1` is 4.41 min.
On to `CCOC(=O)Nc1cccc(N)c1C`, for which the LC retention time was 5.08 min.
On to `Nc1ccc(S(=O)(=O)Nc2ccccn2)cc1`, for which the LC retention time is 5.55 min.
The figure for `CC1(C)CC(O)CC(C)(C)N1CCO` is 2.16 min.

The values above are taken from the RepoRT retention time repository (doi:10.1016/j.chroma.2015.11.014).
